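A five-concentration, 48-hour dose response in 96-well plates underlies each endpoint, interpolated linearly between surrounding concentrations. Abbreviation: GI50, concentration required for 50% inhibition of growth.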 Active and inactive are the calls of the source. Cut-off read from the data, not from the text of the source: active = GI50 up to about 1.1 µM and inactive = higher.
Columns and labels:
Assay in all cases: NCI tumour cell line growth inhibition, 48 h
786-0 = system: 786-0
A498 = system: A498
A549 = system: A549
CAKI-1 = system: CAKI-1
HCC 2998 = system: HCC 2998
HOP-62 = system: HOP-62
HT-29 = system: HT-29
IGROV-1 = system: IGROV-1
M14 = system: M14
MCF7 = system: MCF7
MDA-MB-435 = system: MDA-MB-435
MDA-N = system: MDA-N
Malme-3M = system: Malme-3M
NCI-H460 = system: NCI-H460
PC-3 = system: PC-3
SF-295 = system: SF-295
SK-MEL-2 = system: SK-MEL-2
TK-10 = system: TK-10
Hs-578T = system: Hs-578T

Measured: GI50

COC(=O)CNC(=O)CCSc1nnc(COc2ccc(Cl)cc2)n1-c1ccccc1
inactive: 786-0 20.2 µM | A498 > 100 µM | A549 68.2 µM | CAKI-1 12 µM | HCC 2998 42.9 µM | HOP-62 > 100 µM | HT-29 27.5 µM | IGROV-1 26.2 µM | M14 23.4 µM | MCF7 71.3 µM | MDA-MB-435 24.1 µM | MDA-N 16.1 µM | Malme-3M 25.8 µM | NCI-H460 31.4 µM | PC-3 52 µM | SF-295 58.5 µM | SK-MEL-2 23.4 µM | TK-10 17.5 µM

ON=C(CC(O)(C(F)(F)Cl)C(F)(F)Cl)CC(O)(C(F)(F)Cl)C(F)(F)Cl
inactive: 786-0 5.21 µM | A498 2.87 µM | A549 5.46 µM | CAKI-1 5.46 µM | HCC 2998 4.5 µM | HOP-62 2.84 µM | HT-29 9.14 µM | Hs-578T 3.52 µM | IGROV-1 6.37 µM | MCF7 3.87 µM | MDA-MB-435 4.07 µM | Malme-3M 2.99 µM | NCI-H460 4.1 µM | PC-3 3.33 µM | SF-295 7.89 µM | SK-MEL-2 3.03 µM | TK-10 7.66 µM

O=[N+]([O-])c1ccccc1S(=O)(=O)c1cc(Cl)cc2c1NCCC2
inactive: 786-0 80 µM | A498 > 100 µM | A549 65.8 µM | CAKI-1 60.4 µM | HCC 2998 20.1 µM | HOP-62 > 100 µM | HT-29 70.3 µM | Hs-578T 40.1 µM | IGROV-1 48.3 µM | M14 63 µM | MCF7 39.4 µM | MDA-MB-435 35.5 µM | Malme-3M 25.8 µM | NCI-H460 77.3 µM | PC-3 52.1 µM | SF-295 52.2 µM | SK-MEL-2 43.6 µM | TK-10 > 100 µM

CCSc1nc(N2CCOCC2)c2cn[nH]c2n1
inactive: 786-0 > 100 µM | A498 4.6 µM | A549 76.9 µM | CAKI-1 28.2 µM | HCC 2998 > 100 µM | HOP-62 > 100 µM | HT-29 > 100 µM | Hs-578T 33.9 µM | IGROV-1 9.64 µM | M14 > 100 µM | MCF7 44.9 µM | MDA-MB-435 41.8 µM | Malme-3M > 100 µM | NCI-H460 49.9 µM | PC-3 22.1 µM | SF-295 54.8 µM | SK-MEL-2 41.5 µM | TK-10 47.8 µM

O=P(CN1CCOCC1)(c1ccccc1)c1ccccc1
inactive: 786-0 > 100 µM | A498 > 100 µM | A549 > 100 µM | CAKI-1 > 100 µM | HOP-62 > 100 µM | HT-29 > 100 µM | IGROV-1 > 100 µM | M14 > 100 µM | Malme-3M > 100 µM | NCI-H460 > 100 µM | SF-295 > 100 µM | SK-MEL-2 > 100 µM | TK-10 > 100 µM

COc1ccc(N2CC(=O)N(C(=O)COc3ccc(OCC(=O)N4C(=O)CN(c5ccc(OC)cc5)C4=S)cc3)C2=S)cc1
inactive: 786-0 > 100 µM | A498 > 100 µM | A549 46.9 µM | CAKI-1 > 100 µM | HCC 2998 > 100 µM | HT-29 57.9 µM | IGROV-1 15.4 µM | M14 > 100 µM | MCF7 48.6 µM | MDA-MB-435 > 100 µM | MDA-N > 100 µM | Malme-3M 4.47 µM | NCI-H460 59.2 µM | PC-3 > 100 µM | SF-295 > 100 µM | SK-MEL-2 > 100 µM | TK-10 > 100 µM

CCOC(=O)c1nc2ccc(C(F)(F)F)cc2nc1Oc1ccc(C#N)cc1
inactive: 786-0 18 µM | A498 23.3 µM | CAKI-1 20.3 µM | HCC 2998 61.4 µM | HOP-62 15.5 µM | HT-29 23.3 µM | Hs-578T 14.3 µM | IGROV-1 14.5 µM | M14 18.5 µM | MCF7 18.2 µM | MDA-MB-435 42.9 µM | NCI-H460 46.7 µM | PC-3 17.3 µM | SF-295 14.8 µM | SK-MEL-2 15.7 µM | TK-10 30.1 µM

SCCCSCCSCCCSCCS
inactive: 786-0 > 100 µM | A549 > 100 µM | HCC 2998 > 100 µM | HOP-62 > 100 µM | HT-29 > 100 µM | IGROV-1 > 100 µM | M14 87.9 µM | MCF7 > 100 µM | MDA-MB-435 > 100 µM | MDA-N > 100 µM | NCI-H460 > 100 µM | PC-3 65.8 µM | SF-295 > 100 µM

O=S(=O)(O)c1ccc(/N=N/c2ccc(/N=N/c3c(O)ccc4ccccc34)c(S(=O)(=O)O)c2)cc1
inactive: 786-0 > 100 µM | A549 > 100 µM | CAKI-1 > 100 µM | HCC 2998 > 100 µM | HOP-62 > 100 µM | HT-29 > 100 µM | Hs-578T > 100 µM | IGROV-1 > 100 µM | M14 > 100 µM | MCF7 > 100 µM | MDA-MB-435 > 100 µM | Malme-3M > 100 µM | NCI-H460 > 100 µM | PC-3 > 100 µM | SF-295 > 100 µM | SK-MEL-2 > 100 µM | TK-10 > 100 µM

COc1ccc(-c2cc(-c3ccc(Nc4ccnc5cc(C(F)(F)F)ccc45)cc3)nc(N)c2C#N)cc1
inactive: 786-0 > 100 µM | A498 > 100 µM | A549 > 100 µM | CAKI-1 > 100 µM | HCC 2998 > 100 µM | HOP-62 43.6 µM | HT-29 > 100 µM | M14 96.8 µM | MCF7 35.9 µM | MDA-MB-435 > 100 µM | Malme-3M > 100 µM | NCI-H460 > 100 µM | PC-3 45.1 µM | SF-295 32 µM | SK-MEL-2 45.2 µM | TK-10 > 100 µM

COC1=C2C[C@H](O)C(C)C[C@@]2(OC)OC1=O (stereo partly drawn)
inactive: 786-0 > 100 µM | A498 > 100 µM | A549 > 100 µM | CAKI-1 > 100 µM | HCC 2998 > 100 µM | HOP-62 > 100 µM | HT-29 > 100 µM | IGROV-1 > 100 µM | M14 > 100 µM | Malme-3M > 100 µM | NCI-H460 > 100 µM | SF-295 > 100 µM | SK-MEL-2 > 100 µM

COc1ccc(/C=C/c2cc(O)cc(OC)c2)cc1
inactive: 786-0 > 100 µM | A498 > 100 µM | A549 97.3 µM | CAKI-1 > 100 µM | HOP-62 > 100 µM | HT-29 > 100 µM | Hs-578T > 100 µM | IGROV-1 > 100 µM | M14 > 100 µM | MCF7 > 100 µM | MDA-MB-435 68.4 µM | Malme-3M 86.3 µM | NCI-H460 84.5 µM | PC-3 68.5 µM | SF-295 75.9 µM | SK-MEL-2 > 100 µM | TK-10 > 100 µM

Source: ChEMBL document CHEMBL1201862, “PubChem BioAssay data set” (2004)
